Results from patent US4443436A, “C-20-Modified macrolide derivatives of the macrolide antibiotics tylosin, desmycosin, macrocin, and lactenocin” (Eli Lilly and Company, priority 1982, dated 1984).
Converted amounts (≈) assume the structure as drawn. Read-outs that look alike come from different tables or passages of the source.

Tests used:
[1] = system: Staphylococcus aureus X1.1; experiment: MIC, standard agar-dilution assay, Staphylococcus aureus X1.1; assay type: cell-based
[2] = system: Staphylococcus aureus V41; experiment: MIC, standard agar-dilution assay, Staphylococcus aureus V41; assay type: cell-based
[3] = system: Staphylococcus aureus X400; experiment: MIC, standard agar-dilution assay, Staphylococcus aureus X400; assay type: cell-based
[4] = system: Staphylococcus aureus S13E; experiment: MIC, standard agar-dilution assay, Staphylococcus aureus S13E; assay type: cell-based
[5] = system: Staphylococcus epidermidis EPI1; experiment: MIC, standard agar-dilution assay, Staphylococcus epidermidis EPI1; assay type: cell-based
[6] = system: Staphylococcus epidermidis EPI2; experiment: MIC, standard agar-dilution assay, Staphylococcus epidermidis EPI2; assay type: cell-based
[7] = system: Streptococcus pyogenes C203; experiment: MIC, standard agar-dilution assay, Streptococcus pyogenes C203; assay type: cell-based
[8] = system: Streptococcus pneumoniae Park I; experiment: microbe, parasite or virus in culture; assay type: cell-based
[9] = system: Streptococcus Group D X66; experiment: MIC, standard agar-dilution assay, Streptococcus Group D X66; assay type: cell-based
Streptococcus Group 9960 = experiment: MIC, standard agar-dilution assay, Streptococcus Group 9960; assay type: cell-based; conditions: Streptococcus Group 9960, agar dilution
[10] = system: Haemophilus influenzae Holt; experiment: MIC, standard agar-dilution assay, Haemophilus influenzae Holt; assay type: cell-based; conditions: Haemophilus influenzae Holt, ampicillin-sensitive strain
[11] = system: Haemophilus influenzae R252; experiment: MIC, standard agar-dilution assay, Haemophilus influenzae R252; assay type: cell-based; conditions: Haemophilus influenzae R252, ampicillin-resistant strain
Staphylococcus aureus = experiment: MIC, broth-dilution microtiter test, Staphylococcus aureus; assay type: cell-based
Excerpt: (§1) The MIC's in Table X were obtained using conventional broth-dilution microtiter tests.

Streptococcus bovis 80 = experiment: MIC, broth-dilution microtiter test, Streptococcus bovis 80; assay type: cell-based; conditions: Streptococcus bovis 80, broth-dilution microtiter
Excerpt: as §1

[12] = system: Pasteurella multocida 17E; experiment: MIC, broth-dilution microtiter test, Pasteurella multocida 17E; assay type: cell-based; conditions: Pasteurella multocida 17E, bovine isolate, broth-dilution microtiter
Excerpt: as §1

[13] = system: Pasteurella multocida 60A; experiment: MIC, broth-dilution microtiter test, Pasteurella multocida 60A; assay type: cell-based
Excerpt: as §1

[14] = system: Pasteurella hemolytica 22C; experiment: MIC, broth-dilution microtiter test, Pasteurella hemolytica 22C; assay type: cell-based; conditions: Pasteurella hemolytica 22C, broth-dilution microtiter
Excerpt: as §1

Mycoplasma gallisepticum = experiment: MIC, broth-dilution microtiter test, Mycoplasma gallisepticum; assay type: cell-based
Excerpt: as §1

Mycoplasma synoviae = experiment: MIC, broth-dilution microtiter test, Mycoplasma synoviae; assay type: cell-based; conditions: Mycoplasma synoviae, broth-dilution microtiter
Excerpt: as §1

Mycoplasma hyorhinis = experiment: MIC, broth-dilution microtiter test, Mycoplasma hyorhinis; assay type: cell-based
Excerpt: as §1

[15] = system: Streptococcus pyogenes C203; experiment: In vivo protection of mice experimentally infected with S. pyogenes C203; conditions: mice, doses given 1 and 4 hours post-infection
Experimental: The C-20 modified derivatives of this invention have shown in vivo antimicrobial activity against experimentally-induced infections in laboratory animals. When two doses of test compound were administered to mice experimentally infected with S. pyogenes C203, the activity observed was measured as an ED50 value [effective dose in mg/kg to protect 50% of the test animals: see Warren Wick, et al., J. Bacteriol. 81, 233-235 (1961)].

[16] = Staphylococcus epidermidis, EPI1
[17] = Staphylococcus epidermidis, EPI2
[18] = Streptococcus equinus, read-out: MIC
[19] = Mycoplasmopsis synoviae, read-out: MIC
[20] = Staphylococcus aureus X1.1, agar dilution
[21] = Staphylococcus aureus V41, penicillin-resistant strain, agar dilution
[22] = Staphylococcus aureus X400, methicillin-resistant strain, agar dilution
[23] = Staphylococcus aureus S13E, agar dilution
[24] = Staphylococcus epidermidis EPI1, agar dilution
[25] = Staphylococcus epidermidis EPI2, agar dilution
[26] = Streptococcus pyogenes C203, agar dilution
[27] = Streptococcus pneumoniae Park I, agar dilution
[28] = Streptococcus Group D X66, agar dilution
[29] = Pasteurella multocida 60A, avian isolate, broth-dilution microtiter
[30] = Mycoplasma gallisepticum, broth-dilution microtiter
[31] = Mycoplasma hyorhinis, broth-dilution microtiter

## CCOC(=O)NN(CCC1CC(C)C(=O)C=CC(C)=CC(COC2OC(C)C(O)C(OC)C2OC)C(CC)OC(=O)CC(O)C(C)C1OC1OC(C)C(OC2CC(C)(O)C(O)C(C)O2)C(N(C)C)C1O)C(=O)OCC (stereo not drawn) [Compound 9, 20-DH-DO-20-[N-(Ethoxycarbonyl)-N-(ethoxycarbonylamino)]aminotylosin]
[1]; Staphylococcus aureus, X1.1
  MIC: 2 µg/mL (≈ 1.86 µM)
[2]; Staphylococcus aureus, V41
  MIC: 2 µg/mL (≈ 1.86 µM)
[3]; Staphylococcus aureus, X400
  MIC: 8 µg/mL (≈ 7.43 µM)
[4]; Staphylococcus aureus, S13E
  MIC: 2 µg/mL (≈ 1.86 µM)
[5]; [16]
  MIC: 4 µg/mL (≈ 3.72 µM)
[6]; [17]
  MIC: 2 µg/mL (≈ 1.86 µM)
[7]; Streptococcus pyogenes, C203
  MIC: 16 µg/mL (≈ 14.9 µM)
[8]; Streptococcus pneumoniae
  MIC: 2 µg/mL (≈ 1.86 µM)
[9]
  MIC: > 128 µg/mL
Streptococcus Group 9960; GROUP9960, read-out: MIC
  MIC: > 128 µg/mL
[10]; read-out: MIC
  MIC: > 128 µg/mL
[11]; read-out: MIC
  MIC: > 128 µg/mL
Staphylococcus aureus
  MIC: 6.25 µg/mL (≈ 5.81 µM)
Streptococcus bovis 80; [18]
  MIC: > 50 µg/mL
[12]; read-out: MIC
  MIC: > 50 µg/mL
[13]; Pasteurella multocida 60A, avian isolate, broth-dilution microtiter, read-out: MIC
  MIC: > 50 µg/mL
[14]; read-out: MIC
  MIC: > 50 µg/mL
Mycoplasma gallisepticum; Mycoplasmoides gallisepticum
  MIC: 1.56 µg/mL (≈ 1.45 µM)
Mycoplasma synoviae; [19]
  MIC: 25 µg/mL (≈ 23.2 µM)
Mycoplasma hyorhinis; Mycoplasma hyorhinis, broth-dilution microtiter, read-out: MIC
  MIC: > 50 µg/mL

## CCC1OC(=O)CC(O)C(C)C(OC2OC(C)C(O)C(N(C)C)C2O)C(CCO[N+](=O)[O-])CC(C)C(=O)C=CC(C)=CC1COC1OC(C)C(O)C(OC)C1OC (stereo not drawn) [Compound 28, 20-DH-20-O-NO2-desmycosin]
[1]; Staphylococcus aureus, X1.1
  MIC: 0.25 µg/mL (≈ 0.305 µM)
[2]; Staphylococcus aureus, V41
  MIC: 0.25 µg/mL (≈ 0.305 µM)
[3]; Staphylococcus aureus, X400
  MIC: 0.25 µg/mL (≈ 0.305 µM)
[4]; Staphylococcus aureus, S13E
  MIC: 0.25 µg/mL (≈ 0.305 µM)
[5]; [16]
  MIC: 0.25 µg/mL (≈ 0.305 µM)
[6]; [17]
  MIC: 0.25 µg/mL (≈ 0.305 µM)
[7]; Streptococcus pyogenes, C203
  MIC: 0.25 µg/mL (≈ 0.305 µM)
[8]; Streptococcus pneumoniae Park I, agar dilution, read-out: MIC
  MIC: 2 µg/mL (≈ 2.44 µM)
[9]; Streptococcus Group D X66, agar dilution, read-out: MIC
  MIC: 8 µg/mL (≈ 9.77 µM)
Streptococcus Group 9960; GROUP9960, read-out: MIC
  MIC: 8 µg/mL (≈ 9.77 µM)
[10]; read-out: MIC
  MIC: 16 µg/mL (≈ 19.5 µM)
[11]; read-out: MIC
  MIC: 16 µg/mL (≈ 19.5 µM)
Staphylococcus aureus; broth-dilution microtiter, read-out: MIC
  MIC: 1.56 µg/mL (≈ 1.9 µM)
Streptococcus bovis 80; [18]
  MIC: 12.5 µg/mL (≈ 15.3 µM)
[12]; read-out: MIC
  MIC: 25 µg/mL (≈ 30.5 µM)
[13]; Pasteurella multocida, 60A
  MIC: 50 µg/mL (≈ 61.1 µM)
[14]; read-out: MIC
  MIC: 25 µg/mL (≈ 30.5 µM)
Mycoplasma gallisepticum; Mycoplasmoides gallisepticum, Mycoplasma gallisepticum, broth-dilution microtiter, read-out: MIC
  MIC: 0.78 µg/mL (≈ 0.952 µM)
Mycoplasma synoviae; [19]
  MIC: 0.78 µg/mL (≈ 0.952 µM)
Mycoplasma hyorhinis; Mycoplasma
  MIC: 50 µg/mL (≈ 61.1 µM)

## CCC1OC(=O)CC(O)C(C)C(OC2OC(C)C(O)C(N(C)C)C2O)C(CCOc2nnc(-c3ccccc3)c(-c3ccccc3)n2)CC(C)C(=O)C=CC(C)=CC1COC1OC(C)C(O)C(OC)C1OC (stereo not drawn) [Compound 50, 20-DH-20-O-(5,6-Diphenyl-1,2,4-triazin-3-yl)desmycosin]
[1]; [20]
  MIC: 0.5 µg/mL (≈ 0.497 µM)
[2]; [21]
  MIC: 0.5 µg/mL (≈ 0.497 µM)
[3]; [22]
  MIC: 1 µg/mL (≈ 0.995 µM)
[4]; [23]
  MIC: 0.5 µg/mL (≈ 0.497 µM)
[5]; [24]
  MIC: 0.5 µg/mL (≈ 0.497 µM)
[6]; [25]
  MIC: 0.5 µg/mL (≈ 0.497 µM)
[7]; [26]
  MIC: 0.5 µg/mL (≈ 0.497 µM)
[8]; [27]
  MIC: 0.5 µg/mL (≈ 0.497 µM)
[9]; [28]
  MIC: 4 µg/mL (≈ 3.98 µM)
Streptococcus Group 9960
  MIC: 4 µg/mL (≈ 3.98 µM)
[10]; agar dilution
  MIC: 64 µg/mL (≈ 63.7 µM)
[11]; agar dilution
  MIC: 64 µg/mL (≈ 63.7 µM)
Staphylococcus aureus; broth-dilution microtiter
  MIC: 1.56 µg/mL (≈ 1.55 µM)
Streptococcus bovis 80
  MIC: 3.12 µg/mL (≈ 3.1 µM)
[12]
  MIC: 25 µg/mL (≈ 24.9 µM)
[13]; [29]
  MIC: 25 µg/mL (≈ 24.9 µM)
[14]
  MIC: -- (Not active at 50 mcg/ml, the highest level tested)
Mycoplasma gallisepticum; [30]
  MIC: ≤ 0.048 µg/mL
Mycoplasma synoviae
  MIC: 0.39 µg/mL (≈ 0.388 µM)
Mycoplasma hyorhinis; [31]
  MIC: 12.5 µg/mL (≈ 12.4 µM)
[15]
  ED50, Oral: > 50 mg/kg × 2
  ED50, Subcutaneous: > 10 mg/kg × 2

## CCC1OC(=O)CC(O)C(C)C(OC2OC(C)C(O)C(N(C)C)C2O)C(CCOc2ncnc3ccccc23)CC(C)C(=O)C=CC(C)=CC1COC1OC(C)C(O)C(OC)C1OC (stereo not drawn) [Compound 51, 20-DH-20-O-(Quinazolin-4-yl)desmycosin]
[1]; [20]
  MIC: 0.25 µg/mL (≈ 0.277 µM)
[2]; [21]
  MIC: 0.25 µg/mL (≈ 0.277 µM)
[3]; [22]
  MIC: 0.5 µg/mL (≈ 0.554 µM)
[4]; [23]
  MIC: 0.25 µg/mL (≈ 0.277 µM)
[5]; [24]
  MIC: 0.25 µg/mL (≈ 0.277 µM)
[6]; [25]
  MIC: 0.12 µg/mL (≈ 0.133 µM)
[7]; [26]
  MIC: 0.5 µg/mL (≈ 0.554 µM)
[8]; [27]
  MIC: 0.5 µg/mL (≈ 0.554 µM)
[9]; [28]
  MIC: 4 µg/mL (≈ 4.43 µM)
Streptococcus Group 9960
  MIC: 4 µg/mL (≈ 4.43 µM)
[10]; agar dilution
  MIC: 16 µg/mL (≈ 17.7 µM)
[11]; agar dilution
  MIC: 32 µg/mL (≈ 35.5 µM)
Staphylococcus aureus; broth-dilution microtiter
  MIC: 0.78 µg/mL (≈ 0.865 µM)
Streptococcus bovis 80
  MIC: 0.78 µg/mL (≈ 0.865 µM)
[12]
  MIC: 12.5 µg/mL (≈ 13.9 µM)
[13]; [29]
  MIC: 12.5 µg/mL (≈ 13.9 µM)
[14]
  MIC: -- (Not active at 50 mcg/ml, the highest level tested)
Mycoplasma gallisepticum; [30]
  MIC: ≤ 0.048 µg/mL
Mycoplasma synoviae
  MIC: 0.39 µg/mL (≈ 0.432 µM)
Mycoplasma hyorhinis; [31]
  MIC: 12.5 µg/mL (≈ 13.9 µM)
[15]
  ED50, Oral: > 50 mg/kg × 2
  ED50, Subcutaneous: 5.4 mg/kg × 2
